In patent US20250195464A1, “ALOTAKETAL COMPOUNDS AND DERIVATIVES THEREOF FOR USE AS ANTIVIRAL AGENTS” (priority 2022, published 2025):
Like-named read-outs stand apart in the source and are kept apart here.

Tests used:
[1] = Cytotoxicity assay, PrestoBlue cell viability; format: cell-based; details: human; concentration required to reduce cell viability by 50%, Calu-3 cells, 48-hr incubation
Experimental: Calu-3 cells were seeded with 10^4 cells/well in 96-well plates. Twenty-four hr after seeding media was aspirated and serially diluted compounds (described above) were added for an additional 48-hr. incubation. Cellular viability was assessed with Presto Blue Cell Viability Assay™ (Thermo Fisher Scientific™) according to the manufacturer's instructions. Cells were incubated with 5% PrestoBlue™ reagent for 2 hr before reading on the SpectraMax Gemini™ XS spectrofluorometer (Molecular Devices, LLC.™) set at excitation and emission wavelengths of 555 and 585 nm, respectively. Cellular viability was expressed relative (%) to vehicle-treated cells. Data are from at least three independent experiments.

SARS-CoV-2 Omicron BA.1 = experiment: microbe, parasite or virus in culture; format: cell-based; details: for inhibition of SARS-CoV-2 Omicron, dsRNA and nucleocapsids as indicators of viral load: Omicron BA.1, at the concentrations tested; for potency compared with Alotaketal C: dependence on R4 chirality; for SI (selectivity index): CC50 / EC50 BA.1
SARS-CoV-2 Omicron BA.5 = experiment: microbe, parasite or virus in culture; format: cell-based; details: Severe acute respiratory syndrome coronavirus 2, Calu-3 cells
mNG-SARS-CoV-2 [2] = experiment: in vitro; details: human
SARS-CoV-2 Omicron BA.2 = experiment: microbe, parasite or virus in culture; format: cell-based; details: Severe acute respiratory syndrome coronavirus 2, Calu-3 cells
[3] = system: SARS-CoV-2 Delta B.1.617.2; experiment: microbe, parasite or virus in culture; format: cell-based
proteins Kinase C (PKC) = details: Wang 2016; cited from earlier work
SARS-CoV-2 VIDO = SARS-CoV-2 VIDO infection of Calu-3 cells, nucleocapsid and dsRNA staining; format: cell-based; details: Severe acute respiratory syndrome coronavirus 2, 3 hr pretreatment
mNG-SARS-CoV-2 [4] = experiment: microbe, parasite or virus in culture
mNG-SARS-CoV-2 [5] = format: cell-based; details: Huh7.5.1 cells pretreated 3 hours with serial dilutions
[6] = Severe acute respiratory syndrome coronavirus 2, Calu-3, read-out: EC50 BA.1

| Structure (SMILES) | CC50 at 48 h [1] | SARS-COV-2 Activity (SARS-CoV-2 Omicron BA.1) | inhibition of SARS-CoV-2 Omicron, dsRNA and nucleocapsids as indicators of viral load (SARS-CoV-2 Omicron BA.1; Calu-3 cells) | potency compared with Alotaketal C (SARS-CoV-2 Omicron BA.1) | SI (selectivity index) (SARS-CoV-2 Omicron BA.1) | EC50 (SARS-CoV-2 Omicron BA.1; [6]) | also measured |
| --- | --- | --- | --- | --- | --- | --- | --- |
| CC(C)=CCC(C)CCCC1CCC[C@]2(C=C(CO)[C@H]3CC(=O)C(C)=C[C@H]3O2)O1 (stereo in doubt) [Compound I10-Cit3, (2S,4aR,6′R,8aR)-6′-(4,7-dimethyloct-6-en-1-yl)-4-(hydroxymethyl)-7-methyl-3′,4a,4′,5′,6′,8a-hexahydrospiro[chromene-2,2′-pyran]-6(5H)-one] | ≥ 100 µM | no | no inhibition activity | decreased | – | – | – |
| CC(C)=CCC(C)CCCC1CCC[C@]2(C=C(CO)[C@H]3CC(=O)C(C)=C[C@H]3O2)O1 (stereo in doubt) [Compound I10-Cit4, (2S,4aR,6'S,8aR)-6′-(4,7-dimethyloct-6-en-1-yl)-4-(hydroxymethyl)-7-methyl-3′,4a,4′,5′,6′,8a-hexahydrospiro[chromene-2,2′-pyran]-6(5H)-one] | ≥ 12700 µM | yes | good inhibition | – | 50872 | 0.25 µM | – |
| CC(=O)O[C@]1(C)C[C@@H](/C=C(\C)CCC=C(C)C)O[C@@]2(C=C(CO)[C@H]3CC(=O)C(C)=C[C@H]3O2)C1 [Alotaketal C] | ≥ 100 µM | yes | – | – | 181.8 | 0.55 µM | EC50 (SARS-CoV-2 Omicron BA.5; dsRNA marker, read-out: dsRNA (EC50), Omicron BA.5): 0.7 µM; EC50 (SARS-CoV-2 Omicron BA.5; nucleocapsid marker, read-out: Nucleocapsid (EC50), Omicron BA.5): 0.3 µM; selectivity ratio (mNG-SARS-CoV-2 [2]): 850; EC50 (SARS-CoV-2 Omicron BA.2; dsRNA marker, read-out: dsRNA (EC50), Omicron BA.2): 0.7 µM; EC50 (SARS-CoV-2 Omicron BA.2; nucleocapsid marker, read-out: Nucleocapsid (EC50), Omicron BA.2): 0.7 µM; EC50 ([3]; Calu-3 cells, dsRNA marker, read-out: dsRNA (EC50), Delta B.1.617.2): 3.9 µM; EC50 ([3]; Calu-3 cells, nucleocapsid marker, read-out: Nucleocapsid (EC50), Delta B.1.617.2): 4.9 µM; EC50 ([3]; Severe acute respiratory syndrome coronavirus 2, Calu-3, Calu-3 cells, dsRNA marker, read-out: dsRNA (EC50), Delta B.1.617.2): 3.96 µM; EC50 ([3]; Severe acute respiratory syndrome coronavirus 2, Calu-3, Calu-3 cells, nucleocapsid marker, read-out: Nucleocapsid (EC50), Delta B.1.617.2): 4.89 µM; activation of protein kinase C (proteins Kinase C (PKC)): activates; EC50 (SARS-CoV-2 VIDO; dsRNA marker, read-out: dsRNA EC50, VIDO): 1.33 µM; EC50 (SARS-CoV-2 VIDO; nucleocapsid marker, read-out: Nucleocapsid EC50, VIDO): 1.44 µM; EC50 (SARS-CoV-2 Omicron BA.1; Severe acute respiratory syndrome coronavirus 2, Calu-3 cells, dsRNA marker, read-out: dsRNA (EC50), Omicron BA.1): 0.4 µM; EC50 (SARS-CoV-2 Omicron BA.1; Severe acute respiratory syndrome coronavirus 2, Calu-3 cells, nucleocapsid marker, read-out: Nucleocapsid (EC50), Omicron BA.1): 0.7 µM; EC50 (mNG-SARS-CoV-2 [4]; Severe acute respiratory syndrome coronavirus 2, Calu-3, read-out: EC50, inhibition of mNG-SARS-CoV-2 infection): 0.11 µM; EC50 (mNG-SARS-CoV-2 [4]; Severe acute respiratory syndrome coronavirus 2, Calu-3, read-out: EC50, secondary screening of hits): 0.08 µM; inhibition at 50 µM (mNG-SARS-CoV-2 [4]; Severe acute respiratory syndrome coronavirus 2, Calu-3, read-out: inhibition of SARS-CoV-2 infection): 90.6% |
| CCCCCCCCCCCC[C@@H]1CCC[C@]2(C=C(CO)[C@H]3CC(=O)C(C)=C[C@H]3O2)O1 [Compound I10-DD2, (2S,4aR,6′R,8aR)-4-(hydroxymethyl)-7-methyl-6′-dodecyl-3′,4a,4′,5′,6′,8a-hexahydrospiro[chromene-2,2′-pyran]-6(5H)-one] | ≥ 113 µM | yes | good inhibition | – | 56.7 | 2 µM | – |
| CCCCCCCCCC[C@H]1CCC[C@]2(C=C(CO)[C@H]3CC(=O)C(C)=C[C@H]3O2)O1 [Compound I10-Dec01, (2S,4aR,6'S,8aR)-4-(hydroxymethyl)-7-methyl-6′-decyl-3′,4a,4′,5′,6′,8a-hexahydrospiro[chromene-2,2′-pyran]-6(5H)-one] | ≥ 339 µM | no | no inhibition activity | decreased | – | – | – |
| CCCCCCCCCC[C@@H]1CCC[C@]2(C=C(CO)[C@H]3CC(=O)C(C)=C[C@H]3O2)O1 [Compound I10-Dec02, (2S,4aR,6′R,8aR)-4-(hydroxymethyl)-7-methyl-6′-decyl-3′,4a,4′,5′,6′,8a-hexahydrospiro [chromene-2, 2′-pyran]-6 (5H)-one] | 74.3 µM | yes | good inhibition | – | 297.2 | 0.25 µM | – |
| CC1=C[C@H]2O[C@]3(C=C(CO)[C@H]2CC1=O)CCCCO3 [Compound I10-H, (2S,4aR,8aR)-4-(hydroxymethyl)-7-methyl-3′,4a,4′,5′,6′,8a-hexahydrospiro[chromene-2,2′-pyran]-6(5H)-one] | ≥ 100 µM | no | no inhibition activity | decreased | – | – | – |
| CCCCCCCC[C@@H]1CCC[C@]2(C=C(CO)[C@H]3CC(=O)C(C)=C[C@H]3O2)O1 [Compound I10-Oct, (2S,4aR,6′R,8aR)-4-(hydroxymethyl)-7-methyl-6′-octyl-3′,4a,4′,5′,6′,8a-hexahydrospiro[chromene-2,2′-pyran]-6(5H)-one] | ≥ 101 µM | yes | good inhibition | – | 100.6 | 1 µM | – |
| CC(C)C[C@H](NC(=O)OCc1ccccc1)C(=O)N[C@@H](C[C@@H]1CCNC1=O)C(O)S(=O)(=O)[O-].[Na+] (stereo partly drawn) [GC376] | – | – | – | – | – | – | reduction of mNG-SARS-CoV-2 infection (mNG-SARS-CoV-2 [5]): dose-dependent reduction |
